# Experimental data taken from PMC5357620, “The NiFe Hydrogenases of the Tetrachloroethene-Respiring Epsilonproteobacterium Sulfurospirillum multivorans: Biochemical Studies and Transcription Analysis” (Frontiers in Microbiology, 2017).
# Target: T1, membrane-bound hydrogenase (MBH, HydABC) (Sulfurospirillum multivorans, UniProt A0AA86ALJ1+A0AA86ANH9+A0AA86DZD7)
# T1 construct: gene hydB; HydA TAT signal peptide cleaved; predicted HydB 62, HydA 34, HydC 26 kDa; dimer of heterotrimers, about 270 kDa; with Periplasmic [NiFe] hydrogenase, large subunit
# T1 sequence (A0AA86DZD7 1-561): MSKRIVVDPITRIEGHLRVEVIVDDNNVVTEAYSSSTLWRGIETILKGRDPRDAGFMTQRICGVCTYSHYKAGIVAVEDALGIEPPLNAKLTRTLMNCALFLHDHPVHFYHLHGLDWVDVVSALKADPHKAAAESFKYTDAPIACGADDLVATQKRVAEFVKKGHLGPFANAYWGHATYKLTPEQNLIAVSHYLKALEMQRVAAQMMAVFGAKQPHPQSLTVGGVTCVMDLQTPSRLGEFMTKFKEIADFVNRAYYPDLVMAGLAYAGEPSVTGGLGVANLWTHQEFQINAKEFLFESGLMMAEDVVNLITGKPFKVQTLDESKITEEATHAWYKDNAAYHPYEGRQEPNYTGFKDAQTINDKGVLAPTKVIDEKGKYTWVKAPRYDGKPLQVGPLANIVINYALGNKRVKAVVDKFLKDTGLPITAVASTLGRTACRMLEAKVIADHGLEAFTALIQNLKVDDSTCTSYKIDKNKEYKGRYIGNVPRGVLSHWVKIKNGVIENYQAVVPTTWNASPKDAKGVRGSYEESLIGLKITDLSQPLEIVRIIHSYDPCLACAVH
# T1 sequence (A0AA86ALJ1 68-385): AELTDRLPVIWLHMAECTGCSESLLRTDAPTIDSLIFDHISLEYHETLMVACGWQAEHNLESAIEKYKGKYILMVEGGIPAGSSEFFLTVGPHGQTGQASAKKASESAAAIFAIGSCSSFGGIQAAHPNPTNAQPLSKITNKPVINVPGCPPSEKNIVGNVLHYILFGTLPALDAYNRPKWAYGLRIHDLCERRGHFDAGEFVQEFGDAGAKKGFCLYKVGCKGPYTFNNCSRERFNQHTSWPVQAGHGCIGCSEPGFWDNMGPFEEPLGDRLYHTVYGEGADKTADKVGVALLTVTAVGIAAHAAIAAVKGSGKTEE
# T1 sequence (A0AA86ANH9 1-225): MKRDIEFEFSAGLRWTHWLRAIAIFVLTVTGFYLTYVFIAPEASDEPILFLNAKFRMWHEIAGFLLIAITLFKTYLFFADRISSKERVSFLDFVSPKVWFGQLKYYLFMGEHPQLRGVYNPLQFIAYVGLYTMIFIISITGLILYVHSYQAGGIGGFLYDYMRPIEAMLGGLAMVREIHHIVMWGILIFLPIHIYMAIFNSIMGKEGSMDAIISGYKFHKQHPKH
# Assay: spectrophotometric H2-dependent DMN reduction, […] nm minus […] nm
# Assay type: biochemical
# Conditions: H2 as electron donor; 0.2 mM DMN; 50 mM glycylglycine pH 8.0; 0.5 mM DTT; electron acceptor, presumably via HydC cytochrome b; partially purified enzyme
smiles,measurement,value
"CC1=C(C)C(=O)c2ccccc2C1=O [DMN, 2,3-dimethyl-1,4-naphthoquinone]","spectrophotometric H2-dependent DMN reduction, 270 nm minus 290 nm",both fractions showed activity with DMN as electron acceptor
